Laboratory results from ChEMBL document CHEMBL3046011, “QSAR analysis of 2-sulfonylphenyl-3-phenyl-indole derivatives as novel anti-inflammatory compounds” (Med Chem Res, 2009).

What follows are molecules tested against T1, Prostaglandin G/H synthase 2 (Mus musculus, UniProt Q05769) (assay: Inhibition of COX2 in Mus musculus (mouse) peritoneal macrophage).
T1 sequence (Q05769 whole entry): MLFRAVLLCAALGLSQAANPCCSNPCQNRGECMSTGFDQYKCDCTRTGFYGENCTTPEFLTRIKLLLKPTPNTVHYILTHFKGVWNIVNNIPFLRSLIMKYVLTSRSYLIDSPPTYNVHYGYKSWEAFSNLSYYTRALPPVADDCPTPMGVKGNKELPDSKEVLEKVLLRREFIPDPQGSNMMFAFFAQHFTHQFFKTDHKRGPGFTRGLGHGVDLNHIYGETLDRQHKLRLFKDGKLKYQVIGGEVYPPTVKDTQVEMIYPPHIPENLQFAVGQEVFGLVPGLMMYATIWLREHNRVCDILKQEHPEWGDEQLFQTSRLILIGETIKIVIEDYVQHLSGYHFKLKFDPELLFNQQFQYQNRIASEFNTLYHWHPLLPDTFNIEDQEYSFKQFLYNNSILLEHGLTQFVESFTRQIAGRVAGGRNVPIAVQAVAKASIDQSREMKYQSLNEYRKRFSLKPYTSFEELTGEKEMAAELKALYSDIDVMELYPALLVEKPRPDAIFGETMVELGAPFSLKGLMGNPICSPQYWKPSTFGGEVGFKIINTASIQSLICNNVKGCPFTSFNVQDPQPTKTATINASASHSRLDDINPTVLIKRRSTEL

SMILES | IC50
COc1ccc(-c2c(-c3ccc(S(C)(=O)=O)cc3)[nH]c3ccccc23)cc1 | 0.02 nM
NS(=O)(=O)c1ccc(-c2[nH]c3ccc(Cl)cc3c2-c2ccccc2)cc1 | 0.141 nM
NS(=O)(=O)c1ccc(-c2[nH]c3ccccc3c2-c2ccc(Cl)cc2)cc1 | 33.1 nM
Cc1ccc(-c2c(-c3ccc(S(C)(=O)=O)cc3)[nH]c3ccccc23)cc1C | 0.17 nM
Cc1ccc2[nH]c(-c3ccc(S(C)(=O)=O)cc3)c(-c3ccccc3)c2c1 | 0.282 nM

Other lines, results leading:

IC50 | SMILES
0.603 nM | CS(=O)(=O)c1ccc(-c2[nH]c3ccccc3c2-c2ccccc2)cc1
0.0891 nM | NS(=O)(=O)c1ccc(-c2[nH]c3ccccc3c2-c2ccccc2)cc1
0.178 nM | CC(=O)NS(=O)(=O)c1ccc(-c2[nH]c3ccccc3c2-c2ccccc2)cc1
0.02 nM | Cc1ccc2[nH]c(-c3ccc(S(N)(=O)=O)cc3)c(-c3ccccc3)c2c1
